Test results taken from patent publication US20210069145A1, “COMPOSITIONS AND METHODS FOR REDUCING A FATTY ACID DESATURATION INDEX IN A SUBJECT IN NEED THEREOF” (Amarin Pharmaceuticals Ireland Limited, priority 2013, published 2021).

Test system: Lipoprotein Particle Sizes
Assay: Lipoprotein particle sizes, 12-week double-blind placebo-controlled study of >96% E-EPA in statin-treated patients
Assay type: in vivo, human
Conditions: 12 weeks; for LDL particle size, % Δ / HDL particle size, % Δ / VLDL particle size, % Δ: median change from baseline; for LDL particle size, End / HDL particle size, End / VLDL particle size, End: median
Description: A multi-center, placebo-controlled, randomized, double-blind, 12-week study was performed to evaluate the efficacy and safety of >96% E-EPA in patients with fasting triglyceride levels ≥200 mg/dl and <500 mg/dl despite statin therapy (the mean of two qualifying entry values needed to be ≥185 mg/dl and at least one of the values needed to be ≥200 mg/dl). The primary objective of the study was to determine the efficacy of >96% E-EPA 2 g daily and 4 g daily, compared to placebo, in lowering fasting TG levels in patients with high risk for cardiovascular disease and with fasting TG levels ≥200 mg/dl and <500 mg/dl, despite treatment to LDL-C goal on statin therapy.
The population for this study was men and women >18 years of age with a body mass index ≤45 kg/m^2 with fasting TG levels greater than or equal to 200 mg/dl and less than 500 mg/dl and on a stable does of statin therapy (with or without ezetimibe). The statin was atorvostatin, rosuvastatin or simvastatin. The dose of statin must have been stable for ≥4 weeks prior to the LDL-C/TG baseline qualifying measurement for randomization. The statin dose was optimized such that the patients are at their LDL-C goal at the LDL-C/TG baseline qualifying measurements. The same statin at the same dose was continued until the study ended.
Approximately 702 patients were randomized at approximately 80 centers in the U.S. The study was a 18- to 20-week, Phase 3, multi-center study consisting of 2 study periods: (1) A 6- to 8-week screening period that included a diet and lifestyle stabilization, a non-statin lipid-altering treatment washout, and an LDL-C and TG qualifying period and (2) A 12-week, double-blind, randomized, placebo-controlled treatment period.
After confirmation of qualifying fasting LDL-C and TG values, eligible patients entered a 12-week, randomized, double-blind treatment period. At Visit 4 (Week 0), patients were randomly assigned to 1 of the following treatment groups: • >96% E-EPA 2 g daily, • >96% E-EPA 4 g daily, or • Placebo.
During the double-blind treatment period, patients were to take 2 capsules (>96% E-EPA or matching placebo) in the morning and 2 capsules in the evening for a total of 4 capsules per day. • Patients in the >96% E-EPA 2 g/day treatment group received 1>96% E-EPA 1 g capsule and 1 matching placebo capsule in the morning and in the evening. • Patients in the >96% E-EPA 4 g/day treatment group received 2>96% E-EPA 1 g capsules in the morning and evening.
The primary efficacy variable for the double-blind treatment period was percent change in TG from baseline to Week 12 endpoint. The secondary efficacy variables for the double-blind treatment period included the following: • Percent changes in total cholesterol (TC), high-density lipoprotein cholesterol (HDL-C), LDL-C, calculated non-HDL-C, and very low-density lipoprotein cholesterol (VLDL-C) from baseline to Week 12 endpoint; • Percent change in very low-density lipoprotein TG from baseline to Week 12; • Percent changes in apolipoprotein A-I (apo A-I), apolipoprotein B (apo B), and apo A-I/apo B ratio from baseline to Week 12; • Percent changes in lipoprotein(a) from baseline to Week 12; • Percent changes in LDL particle number and size, measured by nuclear magnetic resonance, from baseline to Week 12; • Percent change in remnant-like particle cholesterol from baseline to Week 12; • Percent change in oxidized LDL from baseline to Week 12; • Changes in FPG and HbA1c from baseline to Week 12; • Change in insulin resistance, as assessed by the homeostasis model index insulin resistance, from baseline to Week 12; • Percent change in lipoprotein associated phospholipase A2 (Lp-PLA2) from baseline to Week 12; • Change in intracellular adhesion molecule-1 from baseline to Week 12; • Change in interleukin-2 from baseline to Week 12; • Change in plasminogen activator inhibitor-1 from baseline to Week 12. […]

[1] = 4 g/day, Hodges-Lehmann median, listed as E-EPA

For `CC/C=C\C/C=C\C/C=C\C/C=C\C/C=C\CCCC(=O)OCC` [ethyl eicosapentaenoate, all-cis eicosa-5,8,11,14,17-pentaenoic acid ethyl ester], the “HDL particle size, Placebo-Adjusted Median Change from Baseline 2 g/d, %” value (2 g/day, Hodges-Lehmann median) was 0.0%, the “LDL particle size, Placebo-Adjusted Median Change from Baseline 2 g/d, %” value (2 g/day, Hodges-Lehmann median) was “+0.5%” and the “VLDL particle size, Placebo-Adjusted Median Change from Baseline 2 g/d, %” value (2 g/day, Hodges-Lehmann median) was −4.8%. The “LDL particle size, % Δ” value (2 g/day, n = 221) was “+0.5%”, the “HDL particle size, % Δ” value (2 g/day, n = 222) was 0.0% and the “VLDL particle size, % Δ” value (2 g/day, n = 222) was −5.0%. The “LDL particle size, End” value (2 g/day, n = 221) was 20.0 nm, the “HDL particle size, End” value (2 g/day, n = 222) was 8.6 nm and the “VLDL particle size, End” value (2 g/day, n = 222) was 53.2 nm. The “HDL particle size, Placebo-Adjusted Median Change from Baseline 4 g/d, %” value (4 g/day, Hodges-Lehmann median) was “significantly reduced”, the “LDL particle size, Placebo-Adjusted Median Change from Baseline 4 g/d, %” value (4 g/day, Hodges-Lehmann median) was “modest but significant increase” and the “VLDL particle size, Placebo-Adjusted Median Change from Baseline 4 g/d, %” value (4 g/day, Hodges-Lehmann median) was “significantly reduced”. For the same compound, the “HDL particle size, Placebo-Adjusted Median Change from Baseline 4 g/d, %” value [1] was −1.2%, the “LDL particle size, Placebo-Adjusted Median Change from Baseline 4 g/d, %” value [1] was “+0.5%” and the “VLDL particle size, Placebo-Adjusted Median Change from Baseline 4 g/d, %” value [1] was −7.7%. The “LDL particle size, % Δ” value (4 g/day, n = 215) was “+0.5%”, the “HDL particle size, % Δ” value (4 g/day, n = 216) was −1.1% and the “VLDL particle size, % Δ” value (4 g/day, n = 216) was −8.1%. The “LDL particle size, End” value (4 g/day, n = 215) was 20.0 nm, the “HDL particle size, End” value (4 g/day, n = 216) was 8.6 nm and the “VLDL particle size, End” value (4 g/day, n = 216) was 51.2 nm.
